From patent US20050209278A1, “Piperidinyl- and piperazinyl-sulfonylmethyl hydroxamic acids and their use as protease inhibitors” (priority 2002, published 2005)
Structures can show the parent of a compound that is named as a salt.

How the values were obtained:
Assay type in all cases: biochemical
[1] = biological target: T1, MMP-1 (Homo sapiens, UniProt P03956); test: MMP-1 inhibition (in vitro Ki); conditions: Table 8; read-out: MMP-1 Ki
T1 construct: made in house; host or cells: MMP-1-transfected HT-1080 cells (spent media)
T1 sequence (P03956 100-469): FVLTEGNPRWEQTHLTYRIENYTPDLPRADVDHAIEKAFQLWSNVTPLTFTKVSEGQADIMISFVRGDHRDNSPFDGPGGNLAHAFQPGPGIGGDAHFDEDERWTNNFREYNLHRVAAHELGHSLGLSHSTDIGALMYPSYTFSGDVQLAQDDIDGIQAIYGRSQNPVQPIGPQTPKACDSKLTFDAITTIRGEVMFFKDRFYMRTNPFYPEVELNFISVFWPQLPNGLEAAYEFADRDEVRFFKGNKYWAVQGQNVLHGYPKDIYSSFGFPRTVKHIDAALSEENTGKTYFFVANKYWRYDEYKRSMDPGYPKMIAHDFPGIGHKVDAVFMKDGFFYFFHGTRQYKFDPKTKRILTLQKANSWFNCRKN

[2] = biological target: T2, MMP-2 (Homo sapiens, UniProt P08253); test: MMP-2 inhibition (in vitro Ki); conditions: Table 8; read-out: MMP-2 Ki
T2 construct: made in house; host or cells: MMP-2-transfected p2AHT2 cells
T2 sequence (P08253 110-660): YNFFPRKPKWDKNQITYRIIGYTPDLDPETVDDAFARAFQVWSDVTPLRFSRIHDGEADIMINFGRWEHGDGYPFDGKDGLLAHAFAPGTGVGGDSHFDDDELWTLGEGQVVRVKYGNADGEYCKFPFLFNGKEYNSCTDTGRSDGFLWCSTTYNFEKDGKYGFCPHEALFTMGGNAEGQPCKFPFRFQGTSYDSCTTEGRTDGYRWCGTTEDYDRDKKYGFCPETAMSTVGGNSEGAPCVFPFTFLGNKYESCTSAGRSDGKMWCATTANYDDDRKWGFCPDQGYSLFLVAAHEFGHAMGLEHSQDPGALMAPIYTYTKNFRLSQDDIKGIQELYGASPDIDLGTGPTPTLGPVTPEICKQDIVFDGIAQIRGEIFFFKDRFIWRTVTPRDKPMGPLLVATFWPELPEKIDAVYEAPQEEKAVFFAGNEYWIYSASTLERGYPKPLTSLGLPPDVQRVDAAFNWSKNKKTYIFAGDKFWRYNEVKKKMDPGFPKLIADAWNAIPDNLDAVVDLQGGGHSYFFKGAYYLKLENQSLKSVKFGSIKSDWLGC

[3] = biological target: T3, MMP-9 (Homo sapiens, UniProt P14780); test: MMP-9 inhibition (in vitro Ki); conditions: Table 8; read-out: MMP-9 Ki
T3 construct: made in house; host or cells: MMP-9-transfected HT1080 cells (spent media)
T3 sequence (P14780 107-707 limits assumed): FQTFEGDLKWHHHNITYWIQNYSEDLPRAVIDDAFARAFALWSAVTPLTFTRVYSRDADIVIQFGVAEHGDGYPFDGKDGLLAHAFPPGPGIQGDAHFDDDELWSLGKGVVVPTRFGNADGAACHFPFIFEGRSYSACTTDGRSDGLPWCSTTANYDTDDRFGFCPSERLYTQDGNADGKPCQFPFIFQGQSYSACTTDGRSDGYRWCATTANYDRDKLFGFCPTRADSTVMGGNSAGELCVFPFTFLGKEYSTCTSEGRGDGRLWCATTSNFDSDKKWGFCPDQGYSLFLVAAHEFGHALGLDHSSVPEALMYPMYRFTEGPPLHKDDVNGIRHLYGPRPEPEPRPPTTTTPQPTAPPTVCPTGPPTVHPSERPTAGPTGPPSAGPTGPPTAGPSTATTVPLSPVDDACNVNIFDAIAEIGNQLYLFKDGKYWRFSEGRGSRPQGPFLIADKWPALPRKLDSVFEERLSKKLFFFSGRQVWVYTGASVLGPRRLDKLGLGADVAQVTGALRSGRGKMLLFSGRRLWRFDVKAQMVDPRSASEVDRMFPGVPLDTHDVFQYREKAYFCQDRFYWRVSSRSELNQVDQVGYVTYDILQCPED

[4] = biological target: T4, MMP-13 (Homo sapiens, UniProt P45452); test: MMP-13 inhibition (in vitro Ki); conditions: Table 8; read-out: MMP-13 Ki
T4 construct: made in house; host or cells: baculovirus / insect cells

[5] = biological target: T5, MMP-14 (Homo sapiens, UniProt P50281); test: MMP-14 inhibition (in vitro Ki); conditions: Table 8; read-out: MMP-14 Ki
T5 construct: The catalytic domain enzyme was expressed in E. coli inclusion bodies, solubilized in urea; made in house

SMILES | Ki [1] [µM] | Ki [2] [µM] | Ki [3] [µM] | Ki [4] [µM] | Ki [5] [µM]
CCCOCCCCC1CCN(S(=O)(=O)C2(C(=O)NO)CCOCC2)CC1 [Example A39, 4-[4-(4-propoxy-butyl)-piperidine-1-sulfonyl]-tetrahydro-pyran-4-carboxylic Acid Hydroxyamide] | 1.99 | 0.0125 | 0.01 | 0.00199 | 1.41
O=C(NO)C1(S(=O)(=O)N2CCC(CCCCOCCCC(F)(F)F)CC2)CCOCC1 [Example A40, 4-{4-[4-(4,4,4-trifluoro-butoxy)-butyl]-piperidine-1-sulfonyl}-tetrahydro-pyran-4-carboxylic Acid Hydroxyamide] | 4.26 | 0.00699 | 0.0464 | 0.0006 | 3.42
CCCCCCOCC1CCN(S(=O)(=O)C2(C(=O)NO)CCOCC2)CC1 [Example A41, 4-(4-hexyloxymethyl-piperidine-1-sulfonyl)-tetrahydro-pyran-4-carboxylic Acid Hydroxyamide] | > 10 | 0.00838 | 0.00179 | 0.00795 | 7.21
O=C(NO)C1(S(=O)(=O)N2CCC(COCCCC(F)(F)F)CC2)CCOCC1 [Example A42, 4-[4-(4,4,4-trifluoro-butoxymethyl)-piperidine-1-sulfonyl]-tetrahydro-pyran-4-carboxylic Acid Hydroxyamide] | > 10 | 0.022 | 0.0286 | 0.0333 | > 10
O=C(NO)C1(S(=O)(=O)N2CCC(CCCCCC(F)(F)F)CC2)CCOCC1 [Example A43, 4-[4-(6,6,6-Trifluoro-hexyl)-piperidine-1-sulfonyl]-tetrahydro-pyran-4-carboxylic Acid Hydroxyamide] | 3.1 | 0.00033 | 0.00019 | 0.00058 | 0.757
CCCCOCCC1CCN(S(=O)(=O)C2(C(=O)NO)CCOCC2)CC1 [Example A44, 4-[4-(2-butoxy-ethyl)-piperidine-1-sulfonyl]-tetrahydro-pyran-4-carboxylic Acid Hydroxyamide] | > 10 | 0.0273 | 0.0125 | 0.0382 | > 10
O=C(NO)C1(S(=O)(=O)N2CCC(CCOCCCC(F)(F)F)CC2)CCOCC1 [Example A45, 4-{4-[2-(4,4,4-trifluoro-butoxy)-ethyl]-piperidine-1-sulfonyl}-tetrahydro-pyran-4-carboxylic Acid Hydroxyamide] | > 10 | 0.0236 | 0.0168 | 0.0122 | > 10
O=C(NO)C1(S(=O)(=O)N2CCC(CCCCOCCC(F)(F)F)CC2)CCOCC1 [Example A46, 4-{4-[4-(3,3,3-trifluoro-propoxy)-butyl]-piperidine-1-sulfonyl}-tetrahydro-pyran-4-carboxylic Acid Hydroxyamide] | 1.5 | 0.00597 | 0.0175 | 0.00052 | 3.61
CCCCCOCCC1CCN(S(=O)(=O)C2(C(=O)NO)CCOCC2)CC1 [Example A47, 4-[4-(2-pentyloxy-ethyl)-piperidine-1-sulfonyl]-tetrahydro-pyran-4-carboxylic Acid Hydroxyamide] | > 10 | 0.0186 | 0.0102 | 0.0127 | > 10
O=C(NO)C1(S(=O)(=O)N2CCC(OCCCCCCC(F)(F)F)CC2)CCOCC1 [Example A48, 4-[4-(7,7,7-trifluoro-heptyloxy)-piperidine-1-sulfonyl]-tetrahydro-pyran-4-carboxylic Acid Hydroxyamide] | > 10 | 0.00349 | 0.00823 | 0.00113 | 2.71

The next lines start with the values.

Ki [1] [µM] | Ki [2] [µM] | Ki [3] [µM] | Ki [4] [µM] | Ki [5] [µM] | SMILES
> 10 | 0.00381 | 0.0031 | 0.00287 | 6.74 | O=C(NO)C1(S(=O)(=O)N2CCC(OCCCCCC(F)(F)F)CC2)CCOCC1 [Example A49, 4-[4-(6,6,6-trifluoro-hexyloxy)-piperidine-1-sulfonyl]-tetrahydro-pyran-4-carboxylic Acid Hydroxyamide]
> 10 | 0.00157 | 0.0071 | 0.0006 | 4.56 | O=C(NO)C1(S(=O)(=O)N2CCC(OCCCCCC(F)(F)C(F)(F)F)CC2)CCOCC1 [Example A50, 4-[4-(6,6,7,7,7-pentafluoro-heptyloxy)-piperidine-1-sulfonyl]-tetrahydro-pyran-4-carboxylic Acid Hydroxyamide]
5.11 | 0.00027 | 0.00101 | 0.00027 | 1.26 | O=C(NO)C1(S(=O)(=O)N2CCC(CCCCCCC(F)(F)C(F)(F)F)CC2)CCOCC1 [Example A51, 4-[4-(7,7,8,8,8-pentafluoro-octyl)-piperidine-1-sulfonyl]-tetrahydro-pyran-4-carboxylic Acid Hydroxyamide]
3.93 | 0.00055 | 0.00103 | 0.00023 | 0.922 | O=C(NO)C1(S(=O)(=O)N2CCC(CCCCCCCC(F)(F)F)CC2)CCOCC1 [Example A52, 4-[4-(8,8,8-trifluoro-octyl)-piperidine-1-sulfonyl]-tetrahydro-pyran-4-carboxylic Acid Hydroxyamide]
2.88 | 0.0011 | 0.00246 | 0.00245 | 2.36 | O=C(NO)C1(S(=O)(=O)N2CCC(CCCCC(F)(F)C(F)(F)F)CC2)CCOCC1 [Example A53, 4-[4-(5,5,6,6,6-pentafluoro-hexyl)-piperidine-1-sulfonyl]-tetrahydro-pyran-4-carboxylic Acid Hydroxyamide]
> 10 | 0.00106 | 0.00081 | 0.00067 | 3.41 | O=C(NO)C1(S(=O)(=O)N2CCC(CCCCCC(F)(F)C(F)(F)F)CC2)CCOCC1 [Example A54, 4-[4-(6,6,7,7,7-pentafluoro-heptyl)-piperidine-1-sulfonyl]-tetrahydro-pyran-4-carboxylic Acid Hydroxyamide]
2.47 | 0.00047 | 0.00015 | 0.00014 | 1.01 | O=C(NO)C1(S(=O)(=O)N2CCC(c3ccc(CCC(F)(F)C(F)(F)F)cn3)CC2)CCCCC1 [Example A56, N-hydroxy-1-({4-[5-(3,3,4,4,4-pentafluorobutyl)pyridin-2-yl]piperidin-1-yl}sulfonyl)cyclohexanecarboxamide Hydrochloride]
1.57 | 0.00053 | 0.00048 | 0.00034 | 2.02 | O=C(NO)C1(S(=O)(=O)N2CCC(c3ccc(OCC(F)(F)F)cn3)CC2)CCOCC1 [Example A57, N-hydroxy-4-({4-[5-(2,2,2-trifluoroethoxy)pyridin-2-yl]piperidin-1-yl}sulfonyl)tetrahydro-2H-pyran-4-carboxamide Hydrochloride]
1.55 | 0.00052 | 0.00137 | 0.00024 | 6.23 | O=C(NO)C1(S(=O)(=O)N2CCC(c3ccc(OCC(F)(F)C(F)(F)F)cn3)CC2)CCOCC1 [Example A58, N-hydroxy-4-({4-[5-(2,2,3,3,3-pentafluoropropoxy)pyridin-2-yl]piperidin-1-yl}sulfonyl)tetrahydro-2H-pyran-4-carboxamide Hydrochloride]
1.66 | 0.00076 | 0.00154 | 0.00062 | 5.15 | O=C(NO)C1(S(=O)(=O)N2CCC(c3ccc(OCC(F)(F)C(F)F)cn3)CC2)CCOCC1 [Example A59, N-hydroxy-4-({4-[5-(2,2,3,3-tetrafluoropropoxy)pyridin-2-yl]piperidin-1-yl}sulfonyl)tetrahydro-2H-pyran-4-carboxamide Hydrochloride]
9.18 | 0.00123 | 0.00063 | 0.0004 | 6.07 | CCC(CC)(C(=O)NO)S(=O)(=O)N1CCC(c2ccc(CCC(F)(F)C(F)(F)F)cn2)CC1 [Example A60, 2-ethyl-N-hydroxy-2-({4-[5-(3,3,4,4,4-pentafluorobutyl)pyridin-2-yl]piperidin-1-yl}sulfonyl)butanamide Hydrochloride]
